Measurements from patent US20160193299A1, “MODIFIED NUCLEOSIDE, NUCLEOTIDE, AND NUCLEIC ACID COMPOSITIONS” (Moderna Therapeutics, Inc., priority 2011, published 2016).

Experiments:
TNF-alpha = assay: Example 46A percent-modified G-CSF mRNA transfected in PBMC, TNF-alpha ELISA; format: cell-based, human
Procedure: The supernatant was harvested and run by ELISA 22 hours after transfection to determine the protein expression.

Female BALB/C mice = assay: In vivo detection of innate immune response: human G-CSF and mouse IFN-alpha in serum after I.M. injection; conditions: I.M., 8 hours after dosing
Procedure: Blood is collected at 8 hours after dosing and using ELISA the protein levels of G-CSF and interferon-alpha (IFN-alpha) is determined by ELISA and are shown in Table 81.

mice = assay: In vivo cytokine expression study (serum IFN-alpha); conditions: mouse serum; I.M. 200 ug mRNA; after 8 hours
Procedure: After 8 hours serum was collected from the mice and analyzed for interferon-alpha (IFN-alpha) expression.

IFN-alpha = assay: Example 45 cytokine study in PBMC, IFN-alpha ELISA; format: cell-based, human; conditions: for IFN-alpha signal - 2 donor average: PBMC
Procedure: (§1) The plates were then incubated at 37 C.
(§2) Each condition was done in duplicate.
(§3) Shown in Tables 69 and 70 are the average from 2 separate PBMC donors of the G-CSF and IFN-alpha production over time as measured by specific ELISA.

Factor IX protein = assay: Factor IX mRNA transfected in serum-free media (2D HPLC / MALDI peptide detection); format: cell-based, Human; conditions: 8 peptides detected, 7 unique to Factor IX
Description: The cell culture supernatant was collected and subjected to trypsin digestion before undergoing 2-dimensional HPLC separation of the peptides. Matrix-assisted laser desorption/ionization was used to detect the peptides. 8 peptides were detected and 7 of the detected peptides are unique to Factor IX.

[1] = tested on: female Sprague Dawley rats; assay: In vivo delivery of modified RNA: G-CSF protein in rat serum (I.M.); conditions: I.M. 400 ug in 100 ul, 5% sucrose, 8 hours after injection
Procedure: Protein production of modified mRNA was evaluated by delivering modified G-CSF mRNA or modified Factor IX mRNA to female Sprague Dawley rats (n=6). […] Blood was collected 8 hours after injection and the G-CSF protein level in serum was measured by ELISA.

human PBMC = assay: Example 45 cytokine study in PBMC, G-CSF production ELISA; format: cell-based; conditions: Lipofectamine 2000
Procedure: as §1, §2, §3
In the G-CSF ELISA, background signal from the Lipofectamine 2000 untreated condition was subtracted at each timepoint. […] Many other cytokines were not affected by either modification.

human G-CSF = assay: Example 32C human G-CSF modified RNA lipoplex vs saline comparison IM/SC, serum G-CSF ELISA; format: in vivo, C57/BL6 mice; conditions: mouse serum, I.M. or S.C., 13 hours
Procedure: A formulation containing 100 μg of either modified human G-CSF mRNA lipoplexed with 30% by volume of RNAIMAX™ with a 5-methylcytosine (5mc) and a pseudouridine (ψ) modification (G-CSF-Gen1-Lipoplex), modified human G-CSF mRNA with a 5mc and w modification in saline (G-CSF-Gen1-Saline), modified human G-CSF mRNA with a N1-5-methylcytosine (N1-5mc) and a w modification lipoplexed with 30% by volume of RNAIMAX™ (G-CSF-Gen2-Lipoplex), modified human G-CSF mRNA with a N1-5mc and ψ modification in saline (G-CSF-Gen2-Saline), modified luciferase with a 5mc and ψ modification lipoplexed with 30% by volume of RNAIMAX™ (Luc-Lipoplex), or modified luciferase mRNA with a a 5mc and ψ modification in saline (Luc-Saline) was delivered intramuscularly (I.M.) or subcutaneously (S.C.) and a control group for each method of administration was giving a dose of 80 uL of the formulation buffer (F. Buffer) to C57/BL6 mice. 13 hours post injection serum and tissue from the site of injection were collected from each mouse and analyzed by G-CSF ELISA to compare human G-CSF protein levels. The results of the human G-CSF protein in mouse serum from the intramuscular administration and the subcutaneous administration results are shown in Table 55.

neutrophil count = assay: Example 40 multi-site IM and SC administration of G-CSF mRNA, neutrophil count; format: in vivo; conditions: mice, day 3
Procedure: Injection of four doses or 2×50 ug (two sites) daily for three days (24 hrs interval) was performed. The fourth dose was administered 6 hrs before blood collection and CBC analysis. […] The mice were bled at 72 hours after the first mRNA injection (6 hours after the last mRNA dose) to determine the effect of mRNA-encoded human G-CSF on the neutrophil count. The dosing regimen is shown in Table 63 as are the resulting neutrophil counts (thousands/uL). In Table 63, an asterisks (*) indicate statistical significance at p<0.05.

For CCOCc1nc2c(N)nc3ccccc3c2n1CC(C)(C)O [Formulation R-848, reference compound], the “TNF-alpha Expression” value (TNF-alpha) was 256.6 pg/mL, the G-CSF protein (Female BALB/C mice; human G-CSF in mouse serum, 200 ug/mouse mRNA (R848 75 ug) in 5% sucrose) was 3.4 pg/mL and the IFN-alpha expression (Female BALB/C mice; mouse IFN-alpha in serum, 200 ug/mouse mRNA (R848 75 ug)) was 40.97 pg/mL. The IFN-alpha (mice) was 40.971 pg/mL, the “IFN-alpha signal - 2 donor average” value (IFN-alpha; 2 Hr) was 39.1 pg/mL and the “IFN-alpha signal - 2 donor average” value (IFN-alpha; 4 Hr) was 151.3 pg/mL. The “IFN-alpha signal - 2 donor average” value (IFN-alpha; 8 Hr) was 278.4 pg/mL, the “IFN-alpha signal - 2 donor average” value (IFN-alpha; 20 Hr) was 362.2 pg/mL and the “IFN-alpha signal - 2 donor average” value (IFN-alpha; 44 Hr) was 208.1 pg/mL.

For “Factor IX Gen 1: Factor IX mRNA SEQ ID NO: 10, Cap1, fully modified with 5-methylcytosine and pseudouridine”, the “expression of Factor IX protein” value (Factor IX protein) was “able to express full-length Factor IX protein” and the G-CSF protein [1] was 2.25 pg/mL.

B1: Gen2 G-CSF mRNA: human G-CSF mRNA SEQ ID NO: 6 fully modified with 5-methylcytosine and N1-methylpseudouridine (nucleic acid, listed as Homo sapiens)
chain: GGGAAAUAAGAGAGAAAAGAAGAGUAAGAAGAAAUAUAAGAGCCACCAUGGCCGGUCCCGCGACCCAAAGCCCCAUGAAACUUAUGGCCCUGCAGUUGCUGCUUUGGCACUCGGCCCUCUGGACAGUCCAAGAAGCGACUCCUCUCGGACCUGCCUCAUCGUUGCCGCAGUCAUUCCUUUUGAAGUGUCUGGAGCAGGUGCGAAAGAUUCAGGGCGAUGGAGCCGCACUCCAAGAGAAGCUCUGCGCGACAUACAAACUUUGCCAUCCCGAGGAGCUCGUACUGCUCGGGCACAGCUUGGGGAUUCCCUGGGCUCCUCUCUCGUCCUGUCCGUCGCAGGCUUUGCAGUUGGCAGGGUGCCUUUCCCAGCUCCACUCCGGUUUGUUCUUGUAUCAGGGACUGCUGCAAGCCCUUGAGGGAAUCUCGCCAGAAUUGGGCCCGACGCUGGACACGUUGCAGCUCGACGUGGCGGAUUUCGCAACAACCAUCUGGCAGCAGAUGGAGGAACUGGGGAUGGCACCCGCGCUGCAGCCCACGCAGGGGGCAAUGCCGGCCUUUGCGUCCGCGUUUCAGCGCAGGGCGGGUGGAGUCCUCGUAGCGAGCCACCUUCAAUCAUUUUUGGAAGUCUCGUACCGGGUGCUGAGACAUCUUGCGCAGCCGUGAAGCGCUGCCUUCUGCGGGGCUUGCCUUCUGGCCAUGCCCUUCUUCUCUCCCUUGCACCUGUACCUCUUGGUCUUUGAAUAAAGCCUGAGUAGGAAG
modifications: 5mC/N1-methylpseudouridine modified
With B1 the G-CSF production (human PBMC) was “highest level of G-CSF production”, the “human G-CSF protein production relative to 5-methylcytosine/pseudouridine modified mRNA” value (human G-CSF) was “increased human G-CSF protein production” and the “increase in neutrophil count above control” value (neutrophil count; intramuscular) was “two fold increase”. The “increase in neutrophil count above control” value (neutrophil count; subcutaneous) was “two fold increase” and the “innate immune recognition, cytokine production (IFN-alpha and others)” value (IFN-alpha; human PBMC, Lipofectamine 2000) was “did not significantly increase cytokines”.
